For 8 compounds, TGI and GI50 results are on record in PubChem BioAssay (NCI).

Values joined by “and” are separate entries in the source; they are usually repeats but may differ in a detail not shown here. Identical values can stand only once.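 Values below derive from 48-hour exposures of cells grown in 96-well plates, with endpoints linearly interpolated between the two concentrations bracketing the appropriate inhibition level. GI50: concentration for 50% inhibition of growth. TGI: concentration producing complete growth inhibition.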 Some results are limits rather than exact numbers.

Among the test systems are COLO 205 colon; RPMI-8226 leukemia; IGROV1 ovarian; RXF 393 renal; HCT-116 colon; NCI-H522 lung; MCF7 breast; SK-MEL-2 melanoma; HCC-2998 colon; NCI-H460 lung.
Holding throughout (assay): growth of human tumour cells (NCI), 48 h

Consider `O=C1NC(c2ccccc2Cl)Nc2ccccc21` (centres undefined), for which the TGI was > 54.1 µM in the assay on COLO 205 colon; 62.8 µM with RPMI-8226 leukemia; > 100 µM in the assay on IGROV1 ovarian; 63.1 µM in the assay on RXF 393 renal; > 100 µM in the assay on HCT-116 colon; 72.1 µM in the assay with NCI-H522 lung. Moreover, the TGI in the assay on MCF7 breast is > 100 µM; with SK-MEL-2 melanoma it was 48.7 µM; in the assay on HCC-2998 colon, > 100 µM; in the assay on NCI-H460 lung it was > 100 µM.

In the case of `COc1nc(N)nc2nc[nH]c12`, the GI50 with COLO 205 colon is > 1000 µM; in the assay on RPMI-8226 leukemia, 677 µM; in the assay with IGROV1 ovarian, 460 µM and 529 µM; in the assay on HCT-116 colon it was 747 µM and 670 µM; in the assay on NCI-H522 lung it was 554 µM; in the assay on MCF7 breast, 604 µM. Besides, the GI50 in the assay on SK-MEL-2 melanoma was > 800 µM; in the assay with HCC-2998 colon it was > 800 µM and 574 µM; in the assay on NCI-H460 lung, 674 µM and 588 µM. Moreover, the TGI with COLO 205 colon is 419 µM and > 800 µM and > 1000 µM; with RPMI-8226 leukemia it was 500 µM and > 1000 µM; with IGROV1 ovarian it was 454 µM and 800 µM and > 1000 µM; in the assay with RXF 393 renal it was 489 µM and 800 µM and 914 µM; with HCT-116 colon, 500 µM and 800 µM and > 1000 µM; with NCI-H522 lung, 500 µM and 800 µM and > 917 µM. Besides, the TGI with MCF7 breast is 500 µM and > 1000 µM; with SK-MEL-2 melanoma it was 500 µM and > 800 µM and > 853 µM; in the assay on HCC-2998 colon, > 868 µM; with NCI-H460 lung it was 500 µM and 800 µM and > 1000 µM.

As to `FC(F)(F)c1cccc(CNC2CCN(CCc3ccccc3)CC2)c1`, the GI50 was 16.9 µM in the assay on COLO 205 colon; 22.6 µM with RPMI-8226 leukemia; 55.9 µM in the assay with IGROV1 ovarian; 12.9 µM in the assay on RXF 393 renal; 22.1 µM with HCT-116 colon; 20.9 µM in the assay on NCI-H522 lung. Moreover, the GI50 in the assay with MCF7 breast is 16 µM; in the assay on SK-MEL-2 melanoma, 23.5 µM; in the assay on HCC-2998 colon it was 17.7 µM; in the assay on NCI-H460 lung it was 19.1 µM. Further, the TGI in the assay with COLO 205 colon was 34.3 µM; in the assay on RPMI-8226 leukemia it was 51.5 µM; with IGROV1 ovarian, > 100 µM; with RXF 393 renal, 39.5 µM; in the assay on HCT-116 colon, 76.7 µM; in the assay with NCI-H522 lung, 44.4 µM. In addition, the TGI in the assay with MCF7 breast stood at 34.6 µM; in the assay with SK-MEL-2 melanoma it was 47.2 µM; with HCC-2998 colon, 37.2 µM; with NCI-H460 lung it was 39.6 µM.

In the case of `O=C1NC(=NCc2cccs2)O/C1=C\c1ccc2ncccc2c1`, the GI50 with COLO 205 colon was 5.2 µM; in the assay on RPMI-8226 leukemia, 4.26 µM; in the assay with IGROV1 ovarian, 3.51 µM; in the assay with RXF 393 renal, 4.63 µM; in the assay with HCT-116 colon, 4.92 µM; with NCI-H522 lung, 2 µM. Also, the GI50 was 5.02 µM in the assay on MCF7 breast, 4.2 µM with SK-MEL-2 melanoma, 7.76 µM with HCC-2998 colon and 6.62 µM in the assay on NCI-H460 lung. In addition, the TGI with COLO 205 colon was 12.8 µM; with RPMI-8226 leukemia it was 17.3 µM; in the assay with IGROV1 ovarian it was 10.5 µM; with RXF 393 renal it was 13.9 µM; in the assay with HCT-116 colon, > 25 µM; with NCI-H522 lung, 8.34 µM. Besides, the TGI is 23.7 µM in the assay on MCF7 breast, 9.82 µM in the assay on SK-MEL-2 melanoma, > 25 µM in the assay on HCC-2998 colon and > 25 µM in the assay with NCI-H460 lung.

For the compound `COc1ccccc1CNCCCN1C(=O)c2ccc3c4c(ccc(c24)C1=O)C(=O)N(CCCNCc1ccccc1OC)C3=O`, the GI50 with COLO 205 colon is 0.121 µM; with RPMI-8226 leukemia, 0.274 µM; with IGROV1 ovarian, 0.148 µM; in the assay on RXF 393 renal it was 0.142 µM; with HCT-116 colon it was 0.0805 µM; in the assay with NCI-H522 lung it was 0.145 µM. Further, the GI50 with MCF7 breast is 0.108 µM; with SK-MEL-2 melanoma, 0.203 µM; in the assay on HCC-2998 colon it was 0.166 µM; in the assay with NCI-H460 lung, 0.167 µM. For the same compound, the TGI with COLO 205 colon was 0.256 µM; in the assay on RPMI-8226 leukemia, 0.799 µM; with IGROV1 ovarian, 0.399 µM; in the assay with RXF 393 renal it was 0.281 µM; in the assay on HCT-116 colon, 0.274 µM; in the assay with NCI-H522 lung, 0.307 µM. The TGI in the assay with MCF7 breast was found to be 0.329 µM; with SK-MEL-2 melanoma, 0.427 µM; in the assay with HCC-2998 colon it was 0.328 µM; in the assay on NCI-H460 lung, 0.421 µM.

Consider `N#C[Se]CCN1C(=O)c2ccccc2C1=O`, for which the GI50 is 3.07 µM in the assay with COLO 205 colon; 3.35 µM in the assay on RPMI-8226 leukemia; 2.02 µM in the assay on IGROV1 ovarian; 1.37 µM in the assay with RXF 393 renal; 1.06 µM with HCT-116 colon; 4.72 µM with NCI-H522 lung. In addition, the GI50 in the assay with MCF7 breast is 2.24 µM; in the assay with SK-MEL-2 melanoma, 3.71 µM; in the assay with HCC-2998 colon it was 3.87 µM; with NCI-H460 lung, 2.25 µM. In addition, the TGI came to 9.05 µM in the assay on COLO 205 colon; 18.5 µM in the assay with RPMI-8226 leukemia; 6.12 µM with IGROV1 ovarian; 2.86 µM in the assay on RXF 393 renal; 3.23 µM in the assay on HCT-116 colon; 21.9 µM in the assay on NCI-H522 lung. The TGI in the assay with MCF7 breast turned out to be 13.1 µM; with SK-MEL-2 melanoma, 19.1 µM; in the assay with HCC-2998 colon, 15.2 µM; with NCI-H460 lung, 11.4 µM.

Regarding `Cn1cc(-c2ccc3c(c2)ncn3-c2cc(NS(=O)(=O)C3CC3)cc(-c3ccc(F)cc3F)c2)cn1`, the GI50 was 24.8 µM in the assay with COLO 205 colon; 3.97 µM in the assay with RPMI-8226 leukemia; 3.49 µM with IGROV1 ovarian; 1.53 µM in the assay with RXF 393 renal; 5.39 µM in the assay with HCT-116 colon; 10.6 µM in the assay on NCI-H522 lung. The GI50 was 4.37 µM in the assay with MCF7 breast, 25.7 µM in the assay on SK-MEL-2 melanoma, 22.7 µM in the assay on HCC-2998 colon and 23.4 µM with NCI-H460 lung. The TGI is > 100 µM in the assay on COLO 205 colon; 32.2 µM with RPMI-8226 leukemia; 61.9 µM in the assay on IGROV1 ovarian; 8.17 µM in the assay on RXF 393 renal; 55.8 µM with HCT-116 colon; 64.9 µM in the assay with NCI-H522 lung. Moreover, the TGI in the assay on MCF7 breast is 92.6 µM; with SK-MEL-2 melanoma, 61.5 µM; with HCC-2998 colon, 80.1 µM; with NCI-H460 lung, > 100 µM.

Regarding `O=C(CC1(O)C(=O)Nc2c(Cl)cc(Cl)cc21)c1cccc([N+](=O)[O-])c1` (centres undefined), the TGI with COLO 205 colon is > 61.7 µM; with RPMI-8226 leukemia, 58.2 µM; in the assay on IGROV1 ovarian it was 55.8 µM; in the assay on RXF 393 renal, 62.7 µM; with HCT-116 colon, 59 µM; with NCI-H522 lung, > 100 µM. For the same compound, the TGI is 33.3 µM in the assay on MCF7 breast, > 86.3 µM in the assay with SK-MEL-2 melanoma, > 70.4 µM in the assay on HCC-2998 colon and > 100 µM in the assay on NCI-H460 lung.
